Earlier results on six compounds are cited in patent US20150098993A1, “COMPOSITIONS, PROCESS OF PREPARATION OF SAID COMPOSITIONS AND METHOD OF TREATING INFLAMMATORY DISEASES” (priority 2011, published 2015).

For one series, the system named is mice. As to conditions: in mice.
Experiment in series [1]: not given
The source holds these as a separate data set.

A further series deals with T1, AT1 receptor (Homo sapiens, UniProt P30556).
T1 sequence (P30556 1-359): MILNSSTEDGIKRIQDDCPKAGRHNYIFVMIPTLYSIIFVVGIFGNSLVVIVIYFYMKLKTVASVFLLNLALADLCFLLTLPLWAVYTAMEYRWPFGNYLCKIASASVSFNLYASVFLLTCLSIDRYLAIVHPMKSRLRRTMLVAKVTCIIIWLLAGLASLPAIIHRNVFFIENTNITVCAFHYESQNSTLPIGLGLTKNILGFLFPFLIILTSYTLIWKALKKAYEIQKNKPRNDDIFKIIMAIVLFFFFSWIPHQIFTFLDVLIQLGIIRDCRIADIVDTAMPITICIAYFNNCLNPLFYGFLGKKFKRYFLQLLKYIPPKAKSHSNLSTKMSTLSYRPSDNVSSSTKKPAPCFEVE
As to conditions: AT1 vs AT2 receptor.

The conditions of series [2]: in vivo.
Experiment in series [3]: not given
The source holds these as a separate data set.

Another series concerns male BALB/c mice. As to conditions: apremilast 5 and 25 mg/kg, dexamethasone 1 mg/kg; daily, oral; McCann.
A further series deals with DBA/1 mice. As to conditions: DBA/1 mice immunized with bCII/CFA; Dalbeth.

Regarding `CCCc1nc(C(C)(C)O)c(C(=O)OCc2oc(=O)oc2C)n1Cc1ccc(-c2ccccc2-c2nnn[nH]2)cc1` [(5-methyl-2-oxo-2H-1,3-dioxol-4-yl)methyl 4-(2-hydroxypropan-2-yl)-2-propyl-1-({4-[2-(2H-1,2,3,4-tetrazol-5-yl)phenyl]phenyl}methyl)-1H-imidazole-5-carboxylate], the protein binding is given as 99%. In addition, in the series with mice, the maximum tolerated dose was 25 mg/kg. The solubility in methanol result in series [1] (methanol) is “sparingly soluble”. Besides, in series [1] (water), the solubility in water result is given as “practically insoluble”. Also, the “greater affinity for the AT1 receptor than for the AT2 receptor” value at AT1 receptor is > 12,500 fold. The “side effects of therapy” value in series [2] was “dehydration (dry mouth, excessive thirst, muscle pain or cramps, nausea and vomiting, weakness), dizziness, low blood pressure, and slow or irregular heartbeat”. Besides, in series [3] (in vivo), the T½ was 13 h; the half-life (as a rule, the time needed for the level to fall by half in the phase considered) is “about 13 hours”; the “penetration of red blood cells” value is “does not penetrate red blood cells”.

For the compound `CCOc1cc([C@@H](CS(C)(=O)=O)N2C(=O)c3cccc(NC(C)=O)c3C2=O)ccc1OC` [Apremilast, (S)-N-{2-[1-(3-Ethoxy-4-methoxyphenyl)-2-methanesulfonylethyl]-1,3-dioxo-2,3-dihydro-1H-isoindol-4-yl}acetamide], the “arthritis severity, as measured by clinical score” value with male BALB/c mice is “significantly suppressed arthritis severity”.

For `O=C(Nc1c(Cl)cncc1Cl)c1ccc(OC(F)F)c(OCC2CC2)c1` [CW304, 3-(cyclopropylmethoxy)-N-(3,5-dichloropyridin-4-yl)-4-(difluoromethoxy)benzamide], in the series on mice, the maximum tolerated dose is reported as 2 mg/kg. Also, in series [1] (acetone), the solubility in acetone result is listed as “freely soluble”. Also, the solubility in ethanol result in series [1] (ethanol) is reported as “sparingly soluble”. Moreover, the “side effects of therapy” value in series [2] was “gastrointestinal (GI) events including nausea, diarrhea, and weight loss”. For the same compound, in series [3] (in vivo), the maximum concentration (Cmax) (usually the peak of the concentration-time curve) is 7040 ng/mL, the T½ was 12 to 14 h and the absolute bioavailability is on record as 79%.

Turning to `Cc1ccc(NC(=O)c2ccc(CN3CCN(C)CC3)cc2)cc1Nc1nccc(-c2cccnc2)n1` [Imatinib, N-(4-methyl-3-{[4-(pyridin-3-yl)pyrmidin-2-yl]amino}phenyl)-4-[(4-methylpiperazin-1-yl)methyl]benzamide], in series [3] (in vivo), the Tmax (in general, the time from dosing to the highest level) is 1.2 h and the “maximum levels achieved after dosing (time)” value was 2 to 4 h.

For `CCCc1nc(C(C)(C)O)c(C(=O)OCc2oc(=O)oc2C)n1Cc1ccc(-c2ccccc2-c2nnn[nH]2)cc1` [Olmesartan medoxomil], the absolute bioavailability result in series [3] (in vivo) is on record as “about 26%”.

Regarding `CCOC(=O)[C@H](CCc1ccccc1)N[C@@H](C)C(=O)N1Cc2ccccc2C[C@H]1C(=O)O` [Quinapril, (3S)-2-[(2S)-2-{[(2S)-1-ethoxy-1-oxo-4-phenylbutan-2-yl]amino}propanoyl]-1,2,3,4-tetrahydroisoquinoline-3-carboxylic acid], the protein binding entry is on record as “about 97%”. In addition, in the series with mice, the maximum tolerated dose was 25 mg/kg. The “solubility in aqueous solvents” value in series [1] (aqueous solvents) is “freely soluble”. In addition, in the series with DBA/1 mice, the “severity of collagen-induced arthritis” value is given as “reduced the severity”. Also, the “time of peak plasma concentration” value in series [3] (following oral administration) is “within one hour”. In series [3] (in vivo), the T½ was 13 h, the extent of absorption result is “at least 60%” and the half-life was 2 h. Besides, the “half-life, prolonged terminal phase” value in series [3] (terminal phase) is 25 h.
